Source: patent publication US20240166610A1, “SUBSTITUTED PYRIDAZINE PHENOL DERIVATIVES” (MEDSHINE DISCOVERY INC., priority 2021, published 2024)
pIC50: −log10 of the molar value. Structures can show the parent of a compound that is named as a salt.

How the values were obtained:
[1] = molecular target: T1, NLRP3 (Homo sapiens, UniProt Q96P20); assay: Detecting IC50 of NLRP3 inhibitor by using THP-1 cells (IL-1β secretion, CBA); type: cell-based; details: PMA/LPS/ATP, IL-1β in supernatant
T1 construct: This experiment utilized the human-derived monocyte cell line THP1; endogenous in cells; host or cells: THP-1 (human monocyte line, PMA-differentiated into macrophages)
Excerpt: 1. Experimental principle: This experiment utilized the human-derived monocyte cell line THP1 to investigate the inhibitory activity (IC50) of NLRP3 inhibitor on cellular IL-1β secretion. PMA (12-O-tetradecanoylphorbol-13-acetate) was used to differentiate the monocyte cell line THP1 into mature macrophages, which were then stimulated using LPS (lipopolysaccharide), an agonist of the Toll-like receptor TLR4, to activate the transcriptional activity of the inflammasome NLRP3 and the expression of pro-IL-1β, a precursor of IL-1β. At this time, the inhibitor of NLRP3 was added, and then ATP (adenosine triphosphate) was added to further mature and activate NLRP3, and activate downstream caspase-1. Activated caspase-1 may enzymatically process pro-IL-1β into mature IL-1β that can be secreted.
(1) The density of THP1 cells was adjusted to 5×10^5 cells/mL, then PMA was added, and the final concentration was adjusted to 100 ng/mL. The cells were inoculated 200 μL/well into a 96-well flat-bottom plate, stimulated overnight (<16 hours if possible) at 37° C. and 5% CO2.
(2) The supernatant was discarded the next day, and then the cells were carefully washed twice with Dulbecco's phosphate-buffered saline (200 μL/time).
(3) The cells were stimulated with LPS at a final concentration of 100 ng/mL, added to a 96-well plate (200 μL/well), and cultured at 37° C. and 5% CO2 for 3 hours.
The cells were incubated for 1 hour in a 37° C., 5% CO2 incubator.
(5) ATP was added to each well with a final concentration of 5 mM, and cultured overnight (>18 hours) at 37° C. and 5% CO2.
(6) On the third day, 5 μL of the supernatant was taken, diluted 10-fold, and the content of IL-1β in the supernatant was detected by cytometric bead array (CBA).

[2] = In vivo pharmacokinetic evaluation in CD-1 mice; details: male, mouse, plasma, dose IV/PO 1/2 mg/kg; for half-life / clearance / Vd: 1 mg/kg; for half-life: IV, read-out: Half-life T1/2 (IV) (converted); for clearance: read-out: Clearance rate CL; for Vd: read-out: Tissue distribution Vdss; for AUC(0-t): PO, read-out: Area under drug-time curve AUC0-last PO; for bioavailability: read-out: Bioavailability F; for Cmax: read-out: Peak concentration Cmax
Method: Experimental Example 2: In Vivo Pharmacokinetic Evaluation of Compounds in CD-1 Mice
Experimental purpose: To test the in vivo pharmacokinetics of the compounds in CD-1 mice
CD-1 mice (male, 7 to 9 weeks old)
The rodent pharmacokinetic characteristics after intravenous injection and oral administration of the compounds were tested using a standard protocol. The candidate compound was prepared as a clear solution during the experiment and given to mice for single intravenous injection and oral administration. The vehicle for intravenous injection and oral administration was a mixed vehicle composed of 5% dimethyl sulfoxide and 95% 5% solutol. Four male CD-1 mice were used in this project. Two mice were administered intravenously (IV), and plasma samples were collected at 0 hours (before administration) and 0.0833, 0.25, 0.5, 1, 2, 4, 8, and 24 hours after administration. The other two mice were administered orally by gavage (PO), and plasma samples were collected at 0 hours (before administration) and 0.25, 0.5, 1, 2, 4, 8, and 24 hours after administration. The plasma concentration was quantitatively analyzed by LC-MS/MS analysis method, and the pharmacokinetic parameters were calculated, such as peak concentration (Cmax), clearance rate (CL), half-life (T1/2), […] (Vdss), area under drug-time curve (AUC0-last), bioavailability (F).

[3] = In vivo pharmacokinetic evaluation in SD rats; details: male, rat, plasma, dose IV/PO 1/2 mg/kg; for half-life / clearance / Vd: 1 mg/kg; for half-life: IV, read-out: Half-life T1/2 (IV) (converted); for clearance: read-out: Clearance rate CL; for Vd: read-out: Tissue distribution Vdss; for AUC(0-t): PO, read-out: Area under drug-time curve AUC0-last PO; for bioavailability: read-out: Bioavailability F; for Cmax: read-out: Peak concentration Cmax
Method: Experimental Example 3: In Vivo Pharmacokinetic Evaluation of Compounds in SD Rats
Experimental Purpose: To Test the In Vivo Pharmacokinetics of the Compounds in SD Rats
The rodent pharmacokinetic characteristics after intravenous injection and oral administration of the compounds were tested using a standard protocol. The candidate compound was prepared as a clear solution during the experiment and given to SD rats for single intravenous injection and oral administration. The vehicle for intravenous injection and oral administration was a mixed vehicle composed of 5% dimethyl sulfoxide and 95% 5% solutol. Four male SD rats were used in this project. Two SD rats were administered intravenously, and plasma samples were collected at 0.083, 0.25, 0.5, 1, 2, 4, 8, and 24 hours after administration. The other two SD rats were administered orally by gavage, and plasma samples were collected at 0.25, 0.5, 1, 2, 4, 8, and 24 hours after administration. The plasma concentration was quantitatively analyzed by LC-MS/MS analysis method, and the pharmacokinetic parameters were calculated, such as peak concentration (Cmaz), clearance rate (CL), half-life (T1/2), […] (Vdss), area under drug-time curve (AUC0-last), bioavailability (F).

T1 sequence (Q96P20 whole entry): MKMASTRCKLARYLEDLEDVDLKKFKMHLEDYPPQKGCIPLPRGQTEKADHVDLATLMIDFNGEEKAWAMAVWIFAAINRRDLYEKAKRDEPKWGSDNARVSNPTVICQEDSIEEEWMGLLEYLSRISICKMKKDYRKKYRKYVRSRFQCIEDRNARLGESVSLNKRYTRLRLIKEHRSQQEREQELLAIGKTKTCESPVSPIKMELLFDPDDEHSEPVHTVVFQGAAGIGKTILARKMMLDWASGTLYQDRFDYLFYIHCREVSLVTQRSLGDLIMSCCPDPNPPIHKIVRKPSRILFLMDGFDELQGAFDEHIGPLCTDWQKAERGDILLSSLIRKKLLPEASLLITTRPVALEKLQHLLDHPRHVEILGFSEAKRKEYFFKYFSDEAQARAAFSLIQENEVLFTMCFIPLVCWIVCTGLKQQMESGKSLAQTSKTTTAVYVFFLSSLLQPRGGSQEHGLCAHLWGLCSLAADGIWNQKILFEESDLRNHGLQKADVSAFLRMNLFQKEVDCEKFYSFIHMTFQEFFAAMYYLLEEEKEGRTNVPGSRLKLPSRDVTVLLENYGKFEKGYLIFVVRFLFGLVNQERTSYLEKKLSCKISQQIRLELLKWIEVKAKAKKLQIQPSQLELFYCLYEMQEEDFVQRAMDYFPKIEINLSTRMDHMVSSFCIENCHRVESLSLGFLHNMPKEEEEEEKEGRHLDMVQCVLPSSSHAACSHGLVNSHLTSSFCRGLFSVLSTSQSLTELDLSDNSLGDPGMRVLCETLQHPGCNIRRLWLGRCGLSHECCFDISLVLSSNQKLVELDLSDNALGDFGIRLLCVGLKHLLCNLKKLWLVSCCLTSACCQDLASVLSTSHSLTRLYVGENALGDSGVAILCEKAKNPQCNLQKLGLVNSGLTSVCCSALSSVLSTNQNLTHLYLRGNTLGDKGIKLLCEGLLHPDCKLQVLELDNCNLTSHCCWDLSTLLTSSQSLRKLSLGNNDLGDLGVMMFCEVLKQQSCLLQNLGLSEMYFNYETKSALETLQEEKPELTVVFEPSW

SMILES	pIC50 [1]	other results
Cc1cc(N[C@@H]2CCCN(C)C2)nnc1-c1ccc2c(c1O)CCC2 [Compound 2]	9.62	–
Cc1cc(N[C@@H]2CCCN(C)C2)nnc1-c1ccc(-c2ccc(F)cc2)cc1O [Compound 4]	–	half-life [2]: 25.7 h; clearance [2]: 0.795 mL/min/kg; Vd [2]: 1.72 L/kg; AUC(0-t) [2]: 54.3 µM·h; bioavailability [2]: 102%; Cmax [2]: 2900 nM
Cc1cc(N[C@@H]2CCCN(CC(N)=O)C2)nnc1-c1ccc2c(c1O)CCC2 [Compound 12b]	8.50	–
Cc1cc(N[C@@H]2CCCN(C3COC3)C2)nnc1-c1ccc(C2CCC2)cc1O [Compound 25]	7.51	–
Cc1cc(N[C@@H]2CCCN(C3COC3)C2)nnc1-c1ccc2sccc2c1O [Compound 26]	9.28	half-life [2]: 1.75 h; clearance [2]: 16.6 mL/min/kg; Vd [2]: 1.71 L/kg; AUC(0-t) [2]: 3.9 µM·h; bioavailability [2]: 78.8%; Cmax [2]: 2070 nM; half-life [3]: 1.1 h; clearance [3]: 12.3 mL/min/kg; Vd [3]: 0.789 L/kg; AUC(0-t) [3]: 7.4 µM·h; bioavailability [3]: 108%; Cmax [3]: 2910 nM
Cc1cc(N[C@@H]2CCCN(C3COC3)C2)nnc1-c1ccc(C2CCCC2)cc1O [Compound 27a]	7.38	–
Cc1cc(N[C@@H]2CCCN(C3COC3)C2)nnc1-c1ccc(C2=CCCC2)cc1O [Compound 27b]	7.59	–
Cc1cc(N[C@@H]2CCCN(C3COC3)C2)nnc1-c1ccc2ccccc2c1O [Compound 28]	7.73	–
Cc1cc(N[C@@H]2CCCN(C3CCOC3)C2)nnc1-c1ccc(C2CC2)cc1O (stereo partly shown) [Compound 30]	8.47	–
Cc1cc(N[C@@H]2CCCN(C3CCOCC3)C2)nnc1-c1ccc(C2CC2)cc1O [Compound 31]	8.68	–
Cc1cc(N[C@@H]2CCCN(C(C)C)C2)nnc1-c1ccc2sccc2c1O [Compound 39]	10.05	half-life [3]: 2.19 h; clearance [3]: 15.3 mL/min/kg; Vd [3]: 2.63 L/kg; AUC(0-t) [3]: 4.53 µM·h; bioavailability [3]: 85.1%; Cmax [3]: 573 nM
Cc1cc(N[C@@H]2CCCN(CC3CC3)C2)nnc1-c1ccc2sccc2c1O [Compound 40]	9.72	–
Cc1cc(N[C@@H]2CCCN(C(=O)C3CC3)C2)nnc1-c1ccc2sccc2c1O [Compound 41]	8.16	–
COC1CC(N2CCC[C@@H](Nc3cc(C)c(-c4ccc5sccc5c4O)nn3)C2)C1 (stereo partly shown) [Compound 49]	9.05	–
Cc1cc(NC2CCCN(C3CC(O)C3)C2)nnc1-c1ccc2sccc2c1O (stereo not shown) [Compound 50]	8.71	–
Cc1cc(N[C@@H]2CCCN(C(=O)CCN(C)C)C2)nnc1-c1ccc2sccc2c1O [Compound 51]	9.85	–

SMILES	pIC50 [1]	other results
Cc1cc(N[C@@H]2CCCN(C3CCOC3)C2)nnc1-c1ccc2sccc2c1O (stereo partly shown) [Formate of compound 42]	9.56	half-life [3]: 1.72 h; clearance [3]: 6.08 mL/min/kg; Vd [3]: 0.837 L/kg; AUC(0-t) [3]: 9.15 µM·h; bioavailability [3]: 71.2%; Cmax [3]: 2100 nM
Cc1cc(N[C@@H]2CCCN(C)C2)nnc1-c1ccc2ccsc2c1O [Formate of compound 45]	10.11	–
Cc1cc(N[C@@H]2CCCN(C3CCOCC3)C2)nnc1-c1ccc2sccc2c1O [Formate of compound 46]	9.54	–
Cc1cc(N[C@@H]2CCCN(CC(C)(C)O)C2)nnc1-c1ccc2sccc2c1O [Formate of compound 47]	9.16	–
Cc1cc(N[C@@H]2CCCN(C3CCC3)C2)nnc1-c1ccc2c(c1O)CCC2 [Hydrochloride of compound 19]	9.12	–
Cc1cc2c(O)c(-c3nnc(N[C@@H]4CCCN(C)C4)cc3C)ccc2s1 [Hydrochloride of compound 43]	8.76	–
Cc1cc(N[C@@H]2CCCN(C)C2)nnc1-c1ccc2sc(F)cc2c1O [Hydrochloride of compound 44a]	10.12	–
Cc1cc(N[C@@H]2CCCN(C)C2)nnc1-c1ccc2sc(F)c(F)c2c1O [Hydrochloride of compound 44b]	8.38	–
Cc1cc2c(O)c(-c3nnc(NCCN(C)C)cc3C)ccc2s1 [Hydrochloride of compound 58]	9.07	–
Cc1cc(N[C@H]2CCCC[C@@H]2O)nnc1-c1ccc2sccc2c1O [Hydrochloride of compound 64]	7.68	–
Cc1cc(Nc2cccnc2)nnc1-c1ccc2sccc2c1O [Hydrochloride of compound 65]	8.22	–
Cc1cc2c(O)c(-c3nnc(N[C@H]4COC[C@@H]4O)cc3C)ccc2s1 [Hydrochloride of compound 66]	8.09	–
Cc1cc2c(O)c(-c3nnc(N[C@@H]4CCCC[C@H]4O)cc3C)ccc2s1 [Hydrochloride of compound 67]	7.78	–
Cc1c(N[C@@H]2CCCN(C)C2)nnc(-c2ccc3sccc3c2O)c1C [Hydrochloride of compound 72]	9.50	–
Cc1c(N[C@@H]2CCCC[C@H]2O)nnc(-c2ccc3sccc3c2O)c1C [Hydrochloride of compound 73]	8.49	–
CN1CCC[C@@H](Nc2ccc(-c3ccc4sccc4c3O)nn2)C1 [Hydrochloride of compound 74]	7.71	–
